Measurements reported in US12534469B2 (CHILDREN'S HOSPITAL MEDICAL CENTER, priority 2020, dated 2026).

Key:
[1] = system: MOLM14 (D835Y) cells; assay: Combination drug screening, 10 x 10 matrix, cell viability (Cell Titer Glo); format: cell-based; details: for Sum Excess HSA: combination with Compound 96, 10 x 10 dataset, 48 hours
Experimental: Briefly, 10 nL of compounds were acoustically dispensed into 1536-well white polystyrene tissue culture-treated plates with an Echo 550 acoustic liquid handler (Labcyte). MOLM14 (D835Y) cells were then added to compound-containing plates at a density of 500-cells/well in 5 μL of medium. A 10-point custom concentration range was used for all listed drugs. Plates were incubated for 48 hours at standard incubator conditions covered by a stainless steel gasketed lid to prevent evaporation. 48 h post compound addition, 3 μL of Cell Titer Glo (Promega) were added to each well and plates were incubated at room temperature for 15 minutes with the stainless-steel lid in place. Luminescence readings were taken using a Viewlux imager (PerkinElmer) with a 2 second exposure time per plate.
However, different methodologies may yield different numerical scores, and different definitions of what constitutes a deviation from mere additivity vs true drug synergy.
However, the utility in certain drug combinations vs others should not be distinguished based on cutoffs between HSA scores, because the score itself is only a relative indicator that is completely dependent on experimental design and is not an absolute number. Furthermore, the concept of what constitutes clinically meaningful drug synergy is something that is still being debated, not only between pharmacologists and physicians, but amongst pharmacologists themselves.

[2] = target: T1, IRAK4 (Homo sapiens, UniProt Q9NWZ3); assay: RBC HotSpot Kinase Assay, IRAK4; format: biochemical; design: purchased Reaction Biology (RBC HotSpot Kinase Assay)
T1 sequence (Q9NWZ3 1-460): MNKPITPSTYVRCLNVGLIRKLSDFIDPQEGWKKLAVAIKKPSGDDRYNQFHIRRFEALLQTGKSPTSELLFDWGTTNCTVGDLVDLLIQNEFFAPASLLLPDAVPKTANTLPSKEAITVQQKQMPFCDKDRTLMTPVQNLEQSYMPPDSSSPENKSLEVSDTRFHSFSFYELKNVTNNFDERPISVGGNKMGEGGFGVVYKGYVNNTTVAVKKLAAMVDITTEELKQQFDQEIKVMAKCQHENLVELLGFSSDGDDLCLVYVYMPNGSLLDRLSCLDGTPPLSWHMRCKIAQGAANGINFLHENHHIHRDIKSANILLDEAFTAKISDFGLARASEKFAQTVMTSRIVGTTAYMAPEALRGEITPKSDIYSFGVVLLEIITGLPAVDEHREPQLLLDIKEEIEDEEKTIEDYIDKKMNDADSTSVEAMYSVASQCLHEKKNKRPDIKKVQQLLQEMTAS
Outline: (§1)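 Radiometric filter-binding (HotSpot) activity assay on isolated recombinant kinase, possibly truncated or catalytic domain only, in 20 mM Hepes pH 7.5, 10 mM MgCl2, 1 mM EGTA, 2 mM DTT, 1% DMSO. Compound preincubated 20 min with kinase and substrate, then ^33P-ATP added. Reaction 2 h at room temperature, read by P81 filter binding.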

[3] = target: T2, IRAK1 (Homo sapiens, UniProt P51617); assay: RBC HotSpot Kinase Assay, IRAK1; format: biochemical
T2 construct: purchased Reaction Biology (RBC HotSpot Kinase Assay)
T2 sequence (P51617 whole entry): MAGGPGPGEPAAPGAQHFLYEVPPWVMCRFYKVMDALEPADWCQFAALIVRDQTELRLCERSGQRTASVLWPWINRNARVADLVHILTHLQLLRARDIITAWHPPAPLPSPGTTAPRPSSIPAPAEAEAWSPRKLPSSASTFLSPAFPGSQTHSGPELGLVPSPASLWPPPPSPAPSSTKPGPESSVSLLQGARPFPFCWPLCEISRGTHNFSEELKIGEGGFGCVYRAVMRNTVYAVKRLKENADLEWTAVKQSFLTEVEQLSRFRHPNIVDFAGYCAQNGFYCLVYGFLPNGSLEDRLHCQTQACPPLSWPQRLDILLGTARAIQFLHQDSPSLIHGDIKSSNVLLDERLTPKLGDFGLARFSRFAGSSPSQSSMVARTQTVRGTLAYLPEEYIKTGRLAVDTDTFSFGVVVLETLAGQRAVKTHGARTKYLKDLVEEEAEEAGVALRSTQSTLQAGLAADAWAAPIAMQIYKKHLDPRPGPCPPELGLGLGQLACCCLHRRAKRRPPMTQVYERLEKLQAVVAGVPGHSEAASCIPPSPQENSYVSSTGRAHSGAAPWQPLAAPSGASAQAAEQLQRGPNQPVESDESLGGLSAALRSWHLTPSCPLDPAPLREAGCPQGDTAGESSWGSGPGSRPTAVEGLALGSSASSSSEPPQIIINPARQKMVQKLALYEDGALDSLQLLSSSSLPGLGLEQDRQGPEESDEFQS
Outline: as §1

[4] = target: T3, FLT3 (Homo sapiens, UniProt P36888); assay: RBC HotSpot Kinase Assay, FLT3; format: biochemical
T3 construct: purchased Reaction Biology (RBC HotSpot Kinase Assay)
T3 sequence (P36888 564-958 limits assumed): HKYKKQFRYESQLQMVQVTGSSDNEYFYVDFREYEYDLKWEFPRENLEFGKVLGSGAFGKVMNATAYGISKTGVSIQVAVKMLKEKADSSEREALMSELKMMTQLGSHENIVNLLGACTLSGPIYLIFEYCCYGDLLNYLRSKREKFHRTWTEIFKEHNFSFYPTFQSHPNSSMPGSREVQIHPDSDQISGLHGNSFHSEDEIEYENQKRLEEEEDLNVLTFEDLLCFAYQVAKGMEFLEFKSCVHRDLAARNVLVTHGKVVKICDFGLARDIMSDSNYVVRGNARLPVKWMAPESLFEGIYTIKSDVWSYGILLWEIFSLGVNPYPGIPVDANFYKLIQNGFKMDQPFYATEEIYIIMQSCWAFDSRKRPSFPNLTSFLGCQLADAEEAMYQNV
Outline: as §1

Row | SMILES | Sum Excess HSA [1] | concentration required to reach a similar level of potentiation as Compound 106 ([1]; 7.8 nM Venetoclax, 10×10 combination, compared with Compound 106) | Interaction with Venetoclax ([1]; combination with Venetoclax, 10 x 10 dataset) | IC50 [2] | IC50 [3] | IC50 [4]
1 | CC1(C)CCC(c2ccc(Cl)cc2)=C(CN2CCN(c3ccc(C(=O)NS(=O)(=O)c4ccc(N[C@H](CCN5CCOCC5)CSc5ccccc5)c(S(=O)(=O)C(F)(F)F)c4)cc3)CC2)C1 [Navitoclax (ABT-263), Navitoclax, reference compound] | −227.3 | – | – | – | – | –
2 | Cc1cnc(-c2ccc(-c3ccc(NC(=O)Nc4c(F)cc(F)cc4F)cc3F)c3c2C(=O)NC3)[nH]1 [CG-806, reference compound] | – | substantially higher concentrations | synergize | – | – | –
3 | CCN(c1cc(-c2ccc(CN3CCOCC3)cc2)cc(C(=O)NCc2c(C)cc(C)[nH]c2=O)c1C)C1CCOCC1 [Tazemetostat, tazemetostat, reference compound] | 74.36 | – | – | – | – | –
4 | Cn1cc(-c2ccc3ncc(-c4cccc(NC5CC6(CNC6)C5)n4)n3n2)cn1 [Compound 35, N-(6-(6-(1-methyl-1H-pyrazol-4-yl)imidazo[1,2-b]pyridazin-3-yl)pyridin-2-yl)-2-azaspiro[3.3]heptan-6-amine] | – | – | – | 0.126 µM | 2.82 µM | 0.003 µM
5 | CC(C)(O)Cn1cc(-c2ccc3ncc(-c4cccc(N[C@H]5CNC[C@@H]5C(F)(F)F)n4)n3n2)cn1 [Compound 14, 2-methyl-1-(4-(3-(6-(((3R,4S)-4-(trifluoromethyl)pyrrolidin-3-yl)amino)pyridin-2-yl)imidazo[1,2-b]pyridazin-6-yl)-1 H-pyrazol-1-yl)propan-2-ol] | – | – | – | 0.1 µM | 1.85 µM | 0.003 µM
6 | Cn1cc(-c2ccc3ncc(-c4cccc(N[C@H]5CCNC[C@@H]5F)n4)n3n2)cn1 [Compound 5, N-((3S,4S)-3-fluoropiperidin-4-yl)-6-(6-(1-methyl-1H-pyrazol-4-yl)imidazo[1,2-b]pyridazin-3-yl)pyridin-2-amine] | – | – | – | 0.051 µM | 0.266 µM | 0.005 µM
7 | Cn1cc(-c2ccc3ncc(-c4cccc(NC5CCC6(CNC6)C5)n4)n3n2)cn1 (stereo not shown) [Compound 49, N-(6-(6-(1-methyl-1H-pyrazol-4-yl)imidazo[1,2-b]pyridazin-3-yl)pyridin-2-yl)-2-azaspiro[3.4]octan-6-amine] | – | – | – | 0.204 µM | 1.2 µM | 0.002 µM
8 | c1cc(N[C@@H]2CCCNC2)nc(-c2cnc3ccc(-c4cnn(C5CC5)c4)nn23)c1 [Compound 17, (R)-6-(6-(1-cyclopropyl-1 H-pyrazol-4-yl)imidazo[1,2-b]pyridazin-3-yl)-N-(piperidin-3-yl)pyridin-2-amine] | – | – | – | 0.009 µM | 1.82 µM | < 0.0005 µM
9 | Cn1cc(-c2ccc3ncc(-c4cccc(NC5CCNC5)n4)n3n2)cn1 (stereo not shown) [Compound 30, 6-(6-(1-methyl-1H-pyrazol-4-yl)imidazo[1,2-b]pyridazin-3-yl)-N-(pyrrolidin-3-yl)pyridin-2-amine] | – | – | – | 0.104 µM | 0.565 µM | 0.002 µM
10 | c1cc(NC2CCC3(CNC3)C2)nc(-c2cnc3ccc(-c4cnn(C5CCOCC5)c4)nn23)c1 (stereo not shown) [Compound 48, N-(6-(6-(1-(tetrahydro-2H-pyran-4-yl)-1H-pyrazol-4-yl)imidazo[1,2-b]pyridazin-3-yl)pyridin-2-yl)-2-azaspiro[3.4]octan-6-amine] | – | – | – | 4.08 µM | > 10 µM | 0.012 µM
11 | FC1(F)CNCC1Nc1cccc(-c2cnc3ccc(-c4cnn5ncccc45)nn23)n1 (stereo not shown) [Compound 54, N-(4,4-difluoropyrrolidin-3-yl)-6-(6-(pyrazolo[1,5-b]pyridazin-3-yl)imidazo[1,2-b]pyridazin-3-yl)pyridin-2-amine] | – | – | – | 0.008 µM | 1.69 µM | < 0.0005 µM
12 | c1cc(NC2CCC3(CNC3)C2)nc(-c2cnc3ccc(-c4cn[nH]c4)nn23)c1 (stereo not shown) [Compound 45, N-(6-(6-(1H-pyrazol-4-yl)imidazo[1,2-b]pyridazin-3-yl)pyridin-2-yl)-2-azaspiro[3.4]octan-6-amine] | – | – | – | 0.008 µM | 0.037 µM | < 0.0005 µM
13 | Cc1oncc1-c1ccc2ncc(-c3cccc(NC4CC5(CNC5)C4)n3)n2n1 [Compound 36, N-(6-(6-(5-methylisoxazol-4-yl)imidazo[1,2-b]pyridazin-3-yl)pyridin-2-yl)-2-azaspiro[3.3]heptan-6-amine] | – | – | – | 2.7 µM | 3.78 µM | 0.005 µM
14 | CC(C)(O)Cn1cc(-c2ccc3ncc(-c4cccc(NC5CNCC5(F)F)n4)n3n2)cn1 (stereo not shown) [Compound 24, 1-(4-(3-(6-((4,4-difluoropyrrolidin-3-yl)amino)pyridin-2-yl)imidazo[1,2-b]pyridazin-6-yl)-1H-pyrazol-1-yl)-2-methylpropan-2-ol] | – | – | – | 0.261 µM | 1.64 µM | 0.017 µM
15 | FC(F)[C@H]1CNC[C@@H]1Nc1cccc(-c2cnc3ccc(C4CC4)nn23)n1 [Compound 72, 6-(6-cyclopropylimidazo[1,2-b]pyridazin-3-yl)-N-((3R,4S)-4-(difluoromethyl)pyrrolidin-3-yl)pyridin-2-amine] | – | – | – | 0.036 µM | 3.59 µM | 0.001 µM
16 | Cn1cc(-c2ccc3ncc(-c4cccc(N[C@@H]5CCCNC5)n4)n3n2)cn1 [Compound 15, (R)-6-(6-(1-methyl-1H-pyrazol-4-yl)imidazo[1,2-b]pyridazin-3-yl)-N-(piperidin-3-yl)pyridin-2-amine] | – | – | – | 0.013 µM | 0.226 µM | < 0.0005 µM
17 | CN(C)c1ccc2ncc(-c3cccc(N[C@H]4CNC[C@@H]4F)n3)n2n1 [Compound 90, 3-(6-(((3S,4S)-4-fluoropyrrolidin-3-yl)amino)pyridin-2-yl)-N,N-dimethylimidazo[1,2-b]pyridazin-6-amine] | – | – | – | 0.061 µM | 6.29 µM | 0.004 µM
18 | CC(C)(O)Cn1cc(-c2ccc3ncc(-c4cccc(N[C@H]5CCNC[C@@H]5F)n4)n3n2)cn1 [Compound 8, 1-(4-(3-(6-(((3S,4S)-3-fluoropiperidin-4-yl)amino)pyridin-2-yl)imidazo[1,2-b]pyridazin-6-yl)-1 H-pyrazol-1-yl)-2-methylpropan-2-ol] | – | – | – | 0.586 µM | 0.704 µM | 0.008 µM
19 | c1cc(NC2CC3(CNC3)C2)nc(-c2cnc3ccc(-c4cnn5ccccc45)nn23)c1 [Compound 61, N-(6-(6-(pyrazolo[1,5-a]pyridin-3-yl)imidazo[1,2-b]pyridazin-3-yl)pyridin-2-yl)-2-azaspiro[3.3]heptan-6-amine] | – | – | – | 0.026 µM | 0.349 µM | 0.001 µM
20 | CC(C)n1cc(-c2ccc3ncc(-c4cccc(NC5CCC6(CNC6)C5)n4)n3n2)cn1 (stereo not shown) [Compound 46, N-(6-(6-(1-isopropyl-1H-pyrazol-4-yl)imidazo[1,2-b]pyridazin-3-yl)pyridin-2-yl)-2-azaspiro[3.4]octan-6-amine] | – | – | – | 0.985 µM | 2.18 µM | 0.006 µM
21 | CNc1ccc2ncc(-c3cccc(N[C@H]4CNC[C@@H]4F)n3)n2n1 [Compound 89, 3-(6-(((3S,4S)-4-fluoropyrrolidin-3-yl)amino)pyridin-2-yl)-N-methylimidazo[1,2-b]pyridazin-6-amine] | – | – | – | 0.058 µM | 8.05 µM | 0.005 µM
22 | FC(F)n1cc(-c2ccc3ncc(-c4cccc(N[C@H]5CNC[C@@H]5C(F)(F)F)n4)n3n2)cn1 [Compound 12, 6-(6-(1-(difluoromethyl)-1 H-pyrazol-4-yl)imidazo[1,2-b]pyridazin-3-yl)-N-((3R,4S)-4-(trifluoromethyl)pyrrolidin-3-yl)pyridin-2-amine] | – | – | – | 0.128 µM | 2.06 µM | 0.003 µM
